Data taken from patent publication US20210380548A1, “Fused [1,2,4]Thiadiazine Derivatives Which Act as KAT Inhibitors of the MYST Family” (CTxT Pty Limited, priority 2017, published 2021).

Tests used:
[1] = target: T1, TIP60-KAT5 (Homo sapiens, UniProt Q92993); assay: Acetyltransferase biochemical assay (AlphaScreen), KAT5; settings: Table 1 (TIP60-KAT5); 0.4 μM Acetyl coenzyme A, histone H4, 10 nM enzyme
T1 construct: encoding amino acid residues 2 to 461 (Uniprot Q92993-2) of human KAT5 isoform; made in house; host or cells: E. coli BL21 DE3

[2] = target: T2, MOZ-KAT6A (Homo sapiens, UniProt Q92794, A567V); assay: Acetyltransferase biochemical assay (AlphaScreen), KAT6A; settings: Table 2 (MOZ-KAT6A); 10 μM Acetyl coenzyme A, histone H3.1, 5 nM enzyme
T2 construct: encoding amino acid residues 507 to 778 (Uniprot Q92794-1) of human KAT6A; made in house; host or cells: E. coli BL21 DE3

[3] = target: T3, HBO-KAT7 (Homo sapiens, UniProt O95251); assay: Acetyltransferase biochemical assay (AlphaScreen), KAT7; settings: Table 3 (HBO-KAT7); 0.4 μM Acetyl coenzyme A, histone H3.1, 40 nM enzyme
T3 construct: encoding amino acid residues 325 to 611 (Uniprot 095251-1) of human KAT7; made in house; host or cells: E. coli BL21 DE3 RIL

[4] = target: T4, MOF-KAT8 (Homo sapiens, UniProt Q9H7Z6); assay: Acetyltransferase biochemical assay (AlphaScreen), KAT8; settings: Table 4 (MOF-KAT8); 0.4 μM Acetyl coenzyme A, histone H4, 20 nM enzyme
T4 sequence (Q9H7Z6 177-447): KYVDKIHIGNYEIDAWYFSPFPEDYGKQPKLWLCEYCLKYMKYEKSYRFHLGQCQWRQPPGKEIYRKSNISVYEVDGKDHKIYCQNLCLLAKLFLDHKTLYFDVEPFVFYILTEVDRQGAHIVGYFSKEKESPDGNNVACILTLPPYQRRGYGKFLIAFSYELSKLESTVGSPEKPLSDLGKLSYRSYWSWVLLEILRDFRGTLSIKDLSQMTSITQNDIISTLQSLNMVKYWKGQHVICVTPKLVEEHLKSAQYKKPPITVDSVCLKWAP

[5] = system: histone H3K14 acetylation (HBO1 mediated) in U2OS cells; assay: Histone H3 Lysine 14 Acetylation Biomarker Assay (96 well, U2OS); format: cell-based; settings: Homo sapiens, 24 h, Table 6, H3K14ac, 24 hours incubation, serum free medium
In short: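 U2OS cells treated 24 h with compound in serum-free medium, then fixed and immunostained for H3K14ac (Alexa647) with Hoechst nuclear stain. High-content imaging gives mean nuclear intensity per cell, converted to % inhibition against DMSO and 10 μM reference-inhibitor controls; IC50 from four-parameter logistic fit.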

[6] = target: T2, MOZ-KAT6A; assay: Revised Acetyltransferase Biochemical Assay, KAT6A; settings: Table 8 (MOZ-KAT6A), 1 μM Acetyl coenzyme A
[7] = target: T3, HBO-KAT7; assay: Revised Acetyltransferase Biochemical Assay, KAT7; settings: Table 9 (HBO-KAT7), 1 μM Acetyl coenzyme A
[8] = target: T1, TIP60-KAT5; assay: Revised Acetyltransferase Biochemical Assay, KAT5; settings: 10 nM KAT5, 1 μM AcCoA, 100 nM histone H4, 90 min
[9] = target: T5, QKF-KAT6B (Homo sapiens, UniProt Q8WYB5); assay: Revised Acetyltransferase Biochemical Assay, KAT6B; settings: 8 nM KAT6B, 1 μM AcCoA, 100 nM histone H3.1, 90 min
T5 construct: purchased SignalChem K315-381BG
Excerpt: KAT6B was obtained from SignalChem, catalog ID: K315-381BG

[10] = target: T4, MOF-KAT8; assay: Revised Acetyltransferase Biochemical Assay, KAT8

T1 sequence (Q92993 2-461 isoform Q92993-2): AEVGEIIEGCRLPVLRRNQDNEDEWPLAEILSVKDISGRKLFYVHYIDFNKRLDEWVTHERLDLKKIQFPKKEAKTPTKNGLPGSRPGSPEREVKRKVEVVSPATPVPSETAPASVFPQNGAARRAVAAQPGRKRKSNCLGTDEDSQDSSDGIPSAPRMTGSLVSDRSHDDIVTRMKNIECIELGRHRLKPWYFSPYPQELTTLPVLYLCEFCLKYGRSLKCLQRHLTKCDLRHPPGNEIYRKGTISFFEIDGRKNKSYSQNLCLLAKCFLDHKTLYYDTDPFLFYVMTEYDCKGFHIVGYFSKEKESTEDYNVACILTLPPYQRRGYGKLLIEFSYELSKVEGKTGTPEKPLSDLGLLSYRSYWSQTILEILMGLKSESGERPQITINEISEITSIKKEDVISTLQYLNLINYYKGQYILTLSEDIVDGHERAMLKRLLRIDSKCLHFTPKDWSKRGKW
T3 sequence (O95251 with tags, fused parts or gaps): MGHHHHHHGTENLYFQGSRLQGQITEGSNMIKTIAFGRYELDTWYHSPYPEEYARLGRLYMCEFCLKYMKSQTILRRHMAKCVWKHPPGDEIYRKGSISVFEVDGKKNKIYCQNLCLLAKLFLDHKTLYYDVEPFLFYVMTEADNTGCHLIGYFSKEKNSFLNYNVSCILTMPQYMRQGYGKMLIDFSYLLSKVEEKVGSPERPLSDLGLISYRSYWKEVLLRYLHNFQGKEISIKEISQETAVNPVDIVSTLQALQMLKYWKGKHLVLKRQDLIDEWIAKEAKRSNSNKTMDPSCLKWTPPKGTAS
T5 sequence (Q8WYB5 whole entry): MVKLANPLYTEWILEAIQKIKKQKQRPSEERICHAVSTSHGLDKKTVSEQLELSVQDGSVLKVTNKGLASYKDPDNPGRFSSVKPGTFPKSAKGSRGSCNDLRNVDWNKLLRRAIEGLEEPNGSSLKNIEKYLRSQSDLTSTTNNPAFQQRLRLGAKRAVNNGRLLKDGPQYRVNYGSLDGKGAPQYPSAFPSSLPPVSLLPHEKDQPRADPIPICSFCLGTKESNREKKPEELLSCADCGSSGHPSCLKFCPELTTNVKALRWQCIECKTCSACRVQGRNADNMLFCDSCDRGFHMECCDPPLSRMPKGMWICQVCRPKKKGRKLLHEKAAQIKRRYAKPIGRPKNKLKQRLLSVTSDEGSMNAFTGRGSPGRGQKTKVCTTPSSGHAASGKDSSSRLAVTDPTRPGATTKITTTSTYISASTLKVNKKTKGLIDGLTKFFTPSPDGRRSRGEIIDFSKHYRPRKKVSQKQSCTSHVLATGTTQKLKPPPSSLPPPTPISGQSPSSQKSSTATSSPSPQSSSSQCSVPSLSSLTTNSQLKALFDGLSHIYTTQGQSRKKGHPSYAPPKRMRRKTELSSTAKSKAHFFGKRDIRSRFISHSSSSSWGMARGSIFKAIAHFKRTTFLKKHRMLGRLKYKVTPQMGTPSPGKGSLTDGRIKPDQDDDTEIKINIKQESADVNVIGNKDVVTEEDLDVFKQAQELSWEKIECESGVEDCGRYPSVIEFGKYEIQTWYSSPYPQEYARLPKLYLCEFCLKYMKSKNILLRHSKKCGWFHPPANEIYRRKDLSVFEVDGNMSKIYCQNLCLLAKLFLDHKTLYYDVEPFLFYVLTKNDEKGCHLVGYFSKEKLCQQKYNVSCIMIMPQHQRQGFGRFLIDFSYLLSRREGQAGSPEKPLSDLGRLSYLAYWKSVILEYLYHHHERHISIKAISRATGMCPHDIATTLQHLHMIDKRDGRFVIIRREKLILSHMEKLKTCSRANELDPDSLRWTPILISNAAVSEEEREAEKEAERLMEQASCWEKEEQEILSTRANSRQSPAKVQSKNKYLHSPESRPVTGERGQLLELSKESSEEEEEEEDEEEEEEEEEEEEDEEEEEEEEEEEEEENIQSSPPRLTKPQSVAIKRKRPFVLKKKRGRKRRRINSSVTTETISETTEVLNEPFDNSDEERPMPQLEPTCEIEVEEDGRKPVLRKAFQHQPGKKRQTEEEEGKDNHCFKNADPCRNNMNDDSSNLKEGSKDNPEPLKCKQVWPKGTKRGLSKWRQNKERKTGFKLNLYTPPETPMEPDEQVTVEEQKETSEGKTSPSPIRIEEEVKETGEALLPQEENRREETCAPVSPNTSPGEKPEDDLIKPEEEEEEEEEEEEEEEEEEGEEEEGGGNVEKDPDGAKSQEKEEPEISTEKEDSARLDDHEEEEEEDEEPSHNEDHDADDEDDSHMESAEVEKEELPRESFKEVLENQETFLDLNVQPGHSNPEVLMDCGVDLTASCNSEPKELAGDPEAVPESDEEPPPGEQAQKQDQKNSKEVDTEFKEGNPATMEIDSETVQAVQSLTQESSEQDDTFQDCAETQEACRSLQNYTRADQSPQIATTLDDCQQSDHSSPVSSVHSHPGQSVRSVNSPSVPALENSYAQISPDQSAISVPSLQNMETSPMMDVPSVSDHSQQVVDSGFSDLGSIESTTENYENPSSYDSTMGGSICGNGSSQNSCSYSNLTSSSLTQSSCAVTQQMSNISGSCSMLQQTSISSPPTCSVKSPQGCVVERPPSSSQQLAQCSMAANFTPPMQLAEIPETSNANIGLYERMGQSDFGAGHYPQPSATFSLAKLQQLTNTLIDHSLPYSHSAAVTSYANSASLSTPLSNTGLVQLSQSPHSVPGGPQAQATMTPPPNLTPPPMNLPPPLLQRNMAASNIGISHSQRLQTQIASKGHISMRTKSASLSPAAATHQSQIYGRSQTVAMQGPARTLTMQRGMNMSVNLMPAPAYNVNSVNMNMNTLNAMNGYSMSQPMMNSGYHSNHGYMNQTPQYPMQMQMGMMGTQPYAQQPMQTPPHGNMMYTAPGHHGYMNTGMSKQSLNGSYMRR
T2 sequence (Q92794 507-778 A567V limits assumed): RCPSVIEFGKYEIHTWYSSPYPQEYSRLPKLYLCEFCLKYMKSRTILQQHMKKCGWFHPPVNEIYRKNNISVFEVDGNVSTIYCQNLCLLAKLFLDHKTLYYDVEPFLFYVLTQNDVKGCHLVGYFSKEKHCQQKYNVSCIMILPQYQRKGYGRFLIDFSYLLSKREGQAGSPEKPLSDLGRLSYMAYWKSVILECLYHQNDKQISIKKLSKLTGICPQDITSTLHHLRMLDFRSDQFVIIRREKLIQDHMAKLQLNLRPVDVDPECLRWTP

Row | IC50 [1] [nM] | IC50 [2] [nM] | IC50 [3] [nM] | IC50 [4] [nM] | IC50 [5] [nM] | IC50 [6] [nM] | IC50 [7] [nM] | IC50 [8] [nM] | IC50 [9] [nM] | IC50 [10] [nM] | Compound
1 | 286 | 24.1 | 63.8 | 14600 | 317 | 5 | 76 | 68 | 60 | 4540 | O=C(NCC(c1ccccc1)c1ncco1)C1=Nc2ccc(Br)cc2S(=O)(=O)N1 (centres unmarked) [Example 1, 7-Bromo-N-(2-(oxazol-2-yl)-2-phenylethyl)-2H-benzo[e][1,2,4]thiadiazine-3-carboxamide 1,1-dioxide]
2 | 9710 | 324 | 2650 | 88200 | 8160 | 64 | 1080 | 4050 | 589 | 99400 | O=C(NCC(c1ccccc1)c1ncco1)C1=Nc2ccccc2S(=O)(=O)N1 (centres unmarked) [Example 46, N-(2-(oxazol-2-yl)-2-phenylethyl)-2H-benzo[e][1,2,4]thiadiazine-3-carboxamide 1,1-dioxide]
3 | 327 |  | 555 |  | 1610 | 10 | 201 | 58 | 39 | 24000 | O=C(NCCc1ccccc1-n1nccn1)C1=Nc2ccc(I)cc2S(=O)(=O)N1 [Example 60, N-(2-(2H-1,2,3-triazol-2-yl)phenethyl)-7-iodo-2H-benzo[e][1,2,4]thiadiazine-3-carboxamide 1,1-dioxide]
4 | 209 | 594 | 339 | 12100 | 615 | 24 | 74 | 90 | 350 | 21100 | O=C(NCCc1ccccc1OC(F)F)C1=Nc2ccc(I)cc2S(=O)(=O)N1 [Example 91]
